This passage reports Kd results from publication PMC2926596 (Nucleic Acids Research, 2010).

For orientation: Kd means the constant that tells how readily two partners part at equilibrium. A lower Kd goes with a tighter complex.

Each structure is given as a SMILES string.

The assay deals with T1, ϕ6 P2 (RNA-directed RNA polymerase, RdRP) (Pseudomonas phage phi6, UniProt P11124).
T1 sequence (P11124 1-665): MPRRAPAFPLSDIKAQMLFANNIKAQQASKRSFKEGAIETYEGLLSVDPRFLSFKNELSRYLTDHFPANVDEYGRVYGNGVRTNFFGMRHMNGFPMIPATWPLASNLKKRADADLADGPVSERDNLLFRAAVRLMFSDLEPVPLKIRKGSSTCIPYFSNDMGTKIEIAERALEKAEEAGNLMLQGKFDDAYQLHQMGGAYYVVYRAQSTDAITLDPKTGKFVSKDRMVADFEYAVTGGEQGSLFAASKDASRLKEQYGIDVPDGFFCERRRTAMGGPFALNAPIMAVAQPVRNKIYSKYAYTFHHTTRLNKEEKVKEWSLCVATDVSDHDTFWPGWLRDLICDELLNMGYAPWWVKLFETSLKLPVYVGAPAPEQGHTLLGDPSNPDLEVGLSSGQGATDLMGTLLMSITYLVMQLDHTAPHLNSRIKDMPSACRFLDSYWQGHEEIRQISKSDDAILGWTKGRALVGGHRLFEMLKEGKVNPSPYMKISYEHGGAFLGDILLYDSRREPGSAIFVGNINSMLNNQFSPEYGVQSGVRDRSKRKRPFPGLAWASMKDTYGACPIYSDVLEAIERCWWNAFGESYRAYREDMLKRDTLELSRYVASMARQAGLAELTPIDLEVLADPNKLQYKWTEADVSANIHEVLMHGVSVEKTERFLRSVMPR
The experiment in a line: tryptophan fluorescence quenching titration. The format is binding.

`Nc1nc2c(ncn2[C@@H]2O[C@H](COP(=O)(O)OP(=O)(O)NP(=O)(O)O)[C@@H](O)[C@H]2O)c(=O)[nH]1` [GMPPNP] returned a Kd of 317 ± 31 µM.

With `Nc1nc2c(ncn2[C@@H]2O[C@H](COP(=O)(O)CP(=O)(O)OP(=O)(O)O)[C@@H](O)[C@H]2O)c(=O)[nH]1` [GMPCPP], the dissociation constant Kd was 271 ± 31 µM.
